Assay results taken from patent US8455510B2.
“Also recorded” adds a separate entry of the source. Like-named read-outs stand apart in the source and are kept apart here.

Assays:
HL-60 cells = assay: SRB growth inhibition, HL-60 cells; assay type: cell-based, human; details: SRB method, 72 hours, different concentrations, FIG. 1
Method: (§1) After Rh30 cells were treated by the compound at different concentrations, the cell survival rate was detected by SRB method.
(§2) The above various kinds of tumor cells in logarithmic growth phase were inoculated on a 96-well plate with 90 μl per well, and allowed to attach for 24 hours, followed by the addition of the compound with 10 μl per well. For each concentration, the test was carried out in triplicate wells, and included a control well containing the aqueous medium of normal saline at the corresponding concentration and a blank well without cells for zeroing. The tumor cells were cultured for 72 hours at 37° C. and 5% CO2, and then the culture medium was removed. The cells were fixed with cold 10% TCA (trichloroacetic acid) at 4° C. for 1 hour, then washed with distilled water for 5 times, and dried at room temperature, followed by addition of a SRB (Sigma) solution (4 mg/ml) in 1% glacial acetic acid at 100 μl per well. The cells were stained at room temperature for 15 min, and the supernatant was removed. The plate was washed by 1% acetic acid for 5 times and dried at room temperature. Finally, Tris-solution was added at 150 μl per well, and the A value was measured at a wavelength of 520 nm on an ELISA Reader.

[1] = tested on: human prostate cancer PC-3 xenograft; assay: PC-3 xenograft on nude mice; details: 1-5 × 3.5 w; for TV (mm3) d0: baseline
PC-3 cells = assay: SRB growth inhibition, PC-3 cells; assay type: cell-based, human; details: SRB method, 72 hours, different concentrations, FIG. 1
Method: as §1, §2

T Cells = assay: Immunosuppressive activity assay: T cells inhibitory activity; assay type: cell-based; details: T-cell; Table 10
FKBP-12 protein = target: T1, FKBP-12 protein (Homo sapiens, UniProt P62942); assay: SPR (surface plasma resonance) binding with FKBP-12
T1 construct: purchased sigma Co
T1 sequence (P62942 whole entry, species assumed): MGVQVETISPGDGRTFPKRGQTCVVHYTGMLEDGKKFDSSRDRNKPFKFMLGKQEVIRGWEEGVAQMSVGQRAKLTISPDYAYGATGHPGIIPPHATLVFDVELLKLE
Method: (1) FKBP-12 protein was purchased from sigma Co.
(2) HBS-EP buffer solution (10 mM Hepes, 150 mM NaCl, 3.4 mM EDTA, 0.005% (v/v) surfactant P20, pH 7.4)
(3) Activating reagents EDC and NHS, and blocking reagents Ethanolamine, etc., were purchased from BIACORE AB Co. (Uppsala, Sweden).
(4) BIAcore 3000 and CM5 chip were purchased from BIACORE AB Co. (Uppsala, Sweden).
(2) […] was coupled to the FC2 channel on CM5 chip by using the Wizard for amino-coupling in Biacore 3000 controlling soft. 3.3 g/L of FKBP-12 protein was diluted with 10 mM NaAC (pH 4.6) to 66 μg/ml. The surface of the chip was washed by injecting a mixture of 0.1M1-(3-dimethylaminopropyl)-3-ethylcarbodiimide hydrochloride (EDCI) and 0.1M N-hydroxysuccinimide (NHS) (1:1) at a flow rate of 20 μL/min for 7 min. After that, the protein solution was injected, and then a 1M cholamine (pH 8.5) solution was fed for 7 min to block the activated surface of the chip. Preliminary screening and pharmacokinetic tests on the compounds
The binding abilities of small molecular compounds with FKBP-12 protein were evaluated by SPR (surface plasma resonance). The stock solution of the compound was 10 mM, and was diluted by HBS-EP buffer solution at given ratios. Pharmacokinetic tests were carried out by the Wizard for kinetic analysis in Biacore 3000 controlling soft. The resulted data were fitted by 1:1 Langmuir binding model or stability model in Biacore 3000 analytical soft to obtain the exact kinetic and thermodynamic constants.

[2] = tested on: phosphorylation levels of p70S6K and 4E-BP1; assay: Western blotting of mTOR downstream substrate phosphorylation in tumor cells; assay type: cell-based, human; details: Rh30, PC-3, MCF-7 and CAKI-1 cells, 1 hour treatment, IGF stimulation, FIG. 2
Method: Cells were inoculated on a 12-well plate with given densities and allowed to attach overnight. Then the medium was changed to a serum-free one. After starved for 24 hours, the cells were treated with the compound at corresponding concentrations for 1 hour, and then stimulated by IGF for 10 min. The cells were collected, and the phosphorylation levels of p70S6K and 4E-BP1 in the cells were measured by using Western blotting.

Rh30 cells = assay: SRB growth inhibition, Rh30 cells; assay type: cell-based, human; details: SRB method, 72 hours, different concentrations, FIG. 1
Method: as §1, §2

[3] = tested on: human rhabdomyosarcoma RH-30 xenograft; assay: RH-30 xenograft on nude mice; details: for TV (mm^3) d0: baseline;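 for all read-outs here: male BALB/cA nude mice with subcutaneous RH-30 tumors, oral dosing versus solvent-fed controls, caliper tumor volume, RTV relative to grouping day, T/C as treated RTV over control RTV ×100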
From the text: Animals: BALB/cA nude mice, male, 40-45 days old, body weight: 21±2 g, provided by Shanghai Institute of Materia Medica, Chinese Academy of Sciences. License No.: SCXK (Shanghai) 2004-0002. Animal number in each group: 6 in negative control group, and 6 in administration group.
The amount of inoculated cells was 5×10^6. After the xenograft was formed by inoculation, it was used after passed for 3 generations in nude mice.

CAKI-1 cells = assay: SRB growth inhibition, CAKI-1 cells; assay type: cell-based, human; details: SRB method, 72 hours, different concentrations, FIG. 1
Method: as §1, §2

[4] = Immunosuppressive activity assay: cytotoxicity; assay type: cell-based
MCF-7 cells = assay: SRB growth inhibition, MCF-7 cells; assay type: cell-based, human; details: SRB method, 72 hours, different concentrations, FIG. 1
Method: as §1, §2

[5] = Table 2, 5 mg/kg p.o, 1-5 × 3 w
[6] = Table 2, 10 mg/kg p.o, 1-5 × 3 w

CO[C@H]1CC2CC[C@@H](C)[C@@](O)(O2)C(=O)C(=O)N2CCCCC2C(=O)O[C@H]([C@H](C)C[C@@H]2CC[C@@H](OC(=O)OCC(O)CO)[C@H](OC)C2)CC(=O)[C@H](C)/C=C(\C)[C@@H](OC(=O)OCC(O)CO)[C@@H](OC)C(=O)[C@H](C)C[C@H](C)/C=C/C=C/C=C/1C (stereo partly shown) [Y50]
inhibitory effects on the growth of HL-60 cells (HL-60 cells): comparable to those of rapamycin
Body Weight (g) end ([1]; Table 3, 2.5 mg/kg p.o): 17.7 g
Body Weight (g) start ([1]; Table 3, 2.5 mg/kg p.o): 19.7 g
RTV ([1]; Table 3, 2.5 mg/kg p.o): 2.6 ± 1.1
T/C (%) ([1]; Table 3, 2.5 mg/kg p.o): 40.2%
TV (mm3) d21 ([1]; Table 3, 2.5 mg/kg p.o): 273 ± 163 mm3
TV (mm3) d0 ([1]; Table 3, 2.5 mg/kg p.o): 103 ± 35 mm3
Body Weight (g) end ([1]; Table 3, 5 mg/kg p.o): 22.3 g
Body Weight (g) start ([1]; Table 3, 5 mg/kg p.o): 22.7 g
RTV ([1]; Table 3, 5 mg/kg p.o): 0.65 ± 0.4
T/C (%) ([1]; Table 3, 5 mg/kg p.o): 10.0%
TV (mm3) d21 ([1]; Table 3, 5 mg/kg p.o): 70 ± 59 mm3
TV (mm3) d0 ([1]; Table 3, 5 mg/kg p.o): 98 ± 42 mm3
inhibitory effects on the growth of PC-3 cells (PC-3 cells): comparable to those of rapamycin
IC50 (T Cells): 9.1 µM
binding with FKBP12 (FKBP-12 protein): concentration-dependently bind
Kd (FKBP-12 protein; FKBP12): 0.26 nM
koff (FKBP-12 protein; FKBP12): 0.14 × 10^−3 S^−1
kon (FKBP-12 protein; FKBP12): 5.24 × 10^5 M^−1S^−1
R^U (Response Unit) compared with rapamycin (FKBP-12 protein; at the same concentration): higher
concentration to reach the saturation state for the binding with FKBP12 (FKBP-12 protein; compared with rapamycin): lower than that for rapamycin
inhibition of mTOR-catalyzed phosphorylation of p70S6K and 4E-BP1 [2]: concentration-dependently suppress; also recorded: comparable inhibitory effects to those of rapamycin
inhibitory effects on the growth of Rh30 cells (Rh30 cells): comparable to those of rapamycin
Body Weight (g) end [3, 5]: 25.8 g
Body Weight (g) start [3, 5]: 22.2 g
RTV [3, 5]: 2.9 ± 0.5
T/C (%) [3, 5]: 32.5%
TV (mm^3) d21 [3, 5]: 380 ± 146 mm^3
TV (mm^3) d0 [3, 5]: 132 ± 47 mm^3
Body Weight (g) end [3, 6]: 26.0 g
Body Weight (g) start [3, 6]: 23.0 g
RTV [3, 6]: 3.5 ± 1.1
T/C (%) [3, 6]: 32.9%
TV (mm^3) d21 [3, 6]: 415 ± 71 mm^3
TV (mm^3) d0 [3, 6]: 130 ± 50 mm^3
Body Weight (g) end ([3]; Table 4, 5 mg/kg po, 1-5/2 w): 21.5 g
Body Weight (g) start ([3]; Table 4, 5 mg/kg po, 1-5/2 w): 20.0 g
RTV ([3]; Table 4, 5 mg/kg po, 1-5/2 w): 2.0 ± 0.5
T/C (%) ([3]; Table 4, 5 mg/kg po, 1-5/2 w): 46.6%
TV (mm^3) d14 ([3]; Table 4, 5 mg/kg po, 1-5/2 w): 323 ± 124 mm^3
TV (mm^3) d0 ([3]; Table 4, 5 mg/kg po, 1-5/2 w): 160 ± 47 mm^3
inhibitory effects on the growth of CAKI-1 cells (CAKI-1 cells): comparable to those of rapamycin
Safety Index CC50/IC50 ([4]; Table 10): >10.9
CC50 ([4]; Table 10, value beyond the >100 μM bound, read-out: Cytotoxicity CC50, value in brackets): 7.59 mM
CC50 ([4]; Table 10, read-out: Cytotoxicity CC50): > 0.1 mM
inhibitory effects on the growth of MCF-7 cells (MCF-7 cells): comparable to those of rapamycin
